{"source": "patent US7012098B2", "about": "“Inhibitors of inducible nitric oxide synthase for chemoprevention and treatment of cancers” (Pharmacia Corporation, priority 2001, dated 2006)", "key": {"AOM-induced colonic ACF": {"tested_on": "AOM-induced colonic ACF", "assay": "Chemopreventive effects in rats with azoxymethane-induced aberrant crypt foci", "format": "in vivo, male F344 rats", "text": "In Vivo Assay of Chemopreventive Effects of Therapeutic Compounds in Rats with Azoxymethane-induced Aberrant Crypt Foci\nAzoxymethane (AOM) (CAS:25843-45-2) was purchased from Ash Stevens (Detroit, Mich.). iNOS and COX-2 selective inhibitors were provided by Pharmacia, (St. Louis, […].). Sulindac, a non-selective inhibitor of COX-isoforms and a known inhibitor of colon carcinogenesis, was supplied by the Chemoprevention Branch of the National Cancer Institute (Bethesda, Md.). Weanling male F344 rats were purchased from Charles River Breeding Laboratories (Kingston, N.Y.). All ingredients of the semipurified diet were obtained from Dyets Inc., (Bethlehem, Pa.) and were stored at 4° C. until the experimental diets were prepared. The rats were held in quarantine for 1 week and had access to modified AIN-76A semipurified control diet (Reddy et al., Cancer Res. 50: 2562-2568, 1990, which is herein incorporated by reference.). They were randomly distributed into various dietary groups and were transferred to an animal holding room where they were housed, three rats to a plastic cage, under controlled conditions of a 12-h light/12-h dark cycle, 50% relative humidity and 21° C. room temperature. Experimental diets were prepared by mixing chemopreventive agents with modified AIN-76A control diet.\nTo quantify aberrant crypt foci, after a minimum of 24 h in buffered formalin, the colons were cut into 2-cm segments starting at the anus; for the next 5-10 min they were placed in a Petri dish containing 0.2% methylene blue in Krebs Ringer solution. They were then placed, mucosal side up, on a microscope slide and observed through a light microscope. Aberrant crypt foci were recorded according to standard procedures that are being used routinely in our laboratory (Rao et al., Carcinogenesis 21: 617-21, 2000; Rao et al., Cancer Res. 53:4182-88, 1993, which are herein incorporated by reference.). […] The parameters used to assess the aberrant crypts were their occurrence and multiplicity. Crypt multiplicity was determined as the number of crypts in each focus and categorized as containing up to 3, or 4 or more aberrant crypts/focus."}, "NOS": {"tested_on": "NOS", "assay": "Colonic mucosal NOS activity after dietary treatment", "format": "in vivo, male F344 rats", "conditions": "1800 ppm in diet; AOM-treated rats, colonic mucosa; Mean ± SEM", "experimental": "(§1) In Vivo Assay of Modulation of Colonic Mucosal Activities of NOS and COX isoforms by iNOS and COX-2 Inhibitors\n(§2) NOS and iNOS activities were determined in colonic samples as prepared and described above. Conversion of L-arginine to L-citrulline was measured by a modification of an earlier described method (Rao et al, Carcinogenesis 21, supra; Ambs et al., Cancer Res. 58:334-41, 1998, which is herein incorporated by reference). The assay was carried out by adding 100 μg sample protein to 150 μl of assay buffer [50 mM HEPES, 1 mM DTT, 1 mM MgCl2, 5 mg/L pepstatin A, 0.1 mM PMSF, and 3 mg/L aprotinin, pH 7.4] containing 70 μM arginine, 250,000 dpm L-[^3H]-arginine, 2 mM NADPH, 5μM tetrahydro biopterin, 5 μM flavin adenine dinucleotide, and 0.5 mM CaCi2 to measure total NOS activity, or 1 mM EGTA (without calcium) to determine Ca+^2-independent iNOS activity. After 30 min at 37° C., the reaction was stopped with 100 μl of 1M trichloroacetic acid. Then the samples were adjusted to pH 4.6 by adding 500 μl of 20 mM HEPES and loaded on to Dowex AG 50W-X8 resin columns. L-[^3H]-citrulline was eluted and separated on TLC. Radioactivity was counted by a BioScan Radiomatic detector. Results are expressed as pmol L-[^3H]-citrulline released/mg protein/min."}, "iNOS": {"target": "iNOS (Rattus norvegicus, UniProt Q06518)", "assay": "Colonic mucosal iNOS activity after dietary treatment", "format": "in vivo, male F344 rats", "experimental": "as §1, §2"}, "COX-1": {"target": "T1, COX-1 (Rattus norvegicus, UniProt Q63921)", "T1 sequence (Q63921 27-602)": "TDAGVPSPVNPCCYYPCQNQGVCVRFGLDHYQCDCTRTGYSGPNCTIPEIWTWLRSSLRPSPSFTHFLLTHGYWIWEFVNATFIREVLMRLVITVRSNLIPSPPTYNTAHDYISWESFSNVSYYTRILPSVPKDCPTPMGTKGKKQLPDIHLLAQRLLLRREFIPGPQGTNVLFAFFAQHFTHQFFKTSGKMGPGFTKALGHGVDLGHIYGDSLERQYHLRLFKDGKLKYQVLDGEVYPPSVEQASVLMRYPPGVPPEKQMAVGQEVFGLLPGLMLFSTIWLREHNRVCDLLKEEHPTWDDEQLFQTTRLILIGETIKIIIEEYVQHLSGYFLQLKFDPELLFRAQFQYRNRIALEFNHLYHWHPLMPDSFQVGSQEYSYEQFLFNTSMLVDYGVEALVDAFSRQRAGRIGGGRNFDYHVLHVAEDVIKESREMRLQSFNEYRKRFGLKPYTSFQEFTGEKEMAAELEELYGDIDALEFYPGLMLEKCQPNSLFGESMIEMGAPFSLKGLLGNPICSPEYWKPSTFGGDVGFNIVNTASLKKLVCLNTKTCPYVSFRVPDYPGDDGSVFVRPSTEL", "assay": "Colonic mucosal COX-1 activity after dietary treatment", "format": "in vivo, male F344 rats", "conditions": "1800 ppm in diet; AOM-treated rats, colonic mucosa; Mean ± SEM", "experimental": "(§3) For determining COX-2 activity, proteins were preincubated with 50 μM of aspirin to block the activity of COX-1. After incubation at 37° C. for 15 min, the reaction was terminated by adding 40 μl of 0.2 M HCl. The COX-mediated metabolites of arachidonic acid were extracted with ethyl acetate (3×0.5 ml). The combined extracts were evaporated to dryness under N2, redissolved in chloroform, and subjected to thin layer chromatography on precoated TLC plastic plates (silica G 60, 20×20 cm, layer thickness 150 μm). […] The metabolites of ^14C-AA corresponding to PGE2, PGF2α, PGD2, 6-Keto PGF1α, and TXB2 were detected by their comigration (Rf-values) with authentic standards. The area of each metabolite was determined in a Bioscan System 200 image scanning counter (Bioscan Inc., Washington, D.C.) equipped with β-detector."}, "COX-2": {"target": "T2, COX-2 (Rattus norvegicus, UniProt P35355)", "T2 sequence (P35355 18-604)": "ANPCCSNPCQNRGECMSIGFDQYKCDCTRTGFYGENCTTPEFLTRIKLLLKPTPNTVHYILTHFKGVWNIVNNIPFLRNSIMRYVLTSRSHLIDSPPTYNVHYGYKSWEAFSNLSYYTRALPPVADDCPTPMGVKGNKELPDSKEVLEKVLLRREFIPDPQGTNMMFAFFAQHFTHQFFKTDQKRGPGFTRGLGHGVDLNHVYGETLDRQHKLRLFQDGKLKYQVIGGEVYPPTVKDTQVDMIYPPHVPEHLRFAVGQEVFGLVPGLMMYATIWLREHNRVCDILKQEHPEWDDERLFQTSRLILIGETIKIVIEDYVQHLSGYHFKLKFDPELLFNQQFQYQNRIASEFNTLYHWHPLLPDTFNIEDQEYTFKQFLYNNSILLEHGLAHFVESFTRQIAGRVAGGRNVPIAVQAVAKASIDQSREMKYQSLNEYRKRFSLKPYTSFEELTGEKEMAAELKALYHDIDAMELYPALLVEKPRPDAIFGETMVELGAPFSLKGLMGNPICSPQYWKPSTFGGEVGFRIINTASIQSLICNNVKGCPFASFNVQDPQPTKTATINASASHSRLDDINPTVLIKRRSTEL", "assay": "Colonic mucosal COX-2 activity after dietary treatment", "format": "in vivo, male F344 rats", "conditions": "1800 ppm in diet; AOM-treated rats, colonic mucosa; Mean ± SEM", "experimental": "as §3"}, "intestinal tumorigenesis": {"tested_on": "intestinal tumorigenesis", "conditions": "APC^Δ716 mice; cited from earlier work"}, "i-NOS": {"target": "i-NOS (Homo sapiens, UniProt P35228)", "sequence (P35228 whole entry)": "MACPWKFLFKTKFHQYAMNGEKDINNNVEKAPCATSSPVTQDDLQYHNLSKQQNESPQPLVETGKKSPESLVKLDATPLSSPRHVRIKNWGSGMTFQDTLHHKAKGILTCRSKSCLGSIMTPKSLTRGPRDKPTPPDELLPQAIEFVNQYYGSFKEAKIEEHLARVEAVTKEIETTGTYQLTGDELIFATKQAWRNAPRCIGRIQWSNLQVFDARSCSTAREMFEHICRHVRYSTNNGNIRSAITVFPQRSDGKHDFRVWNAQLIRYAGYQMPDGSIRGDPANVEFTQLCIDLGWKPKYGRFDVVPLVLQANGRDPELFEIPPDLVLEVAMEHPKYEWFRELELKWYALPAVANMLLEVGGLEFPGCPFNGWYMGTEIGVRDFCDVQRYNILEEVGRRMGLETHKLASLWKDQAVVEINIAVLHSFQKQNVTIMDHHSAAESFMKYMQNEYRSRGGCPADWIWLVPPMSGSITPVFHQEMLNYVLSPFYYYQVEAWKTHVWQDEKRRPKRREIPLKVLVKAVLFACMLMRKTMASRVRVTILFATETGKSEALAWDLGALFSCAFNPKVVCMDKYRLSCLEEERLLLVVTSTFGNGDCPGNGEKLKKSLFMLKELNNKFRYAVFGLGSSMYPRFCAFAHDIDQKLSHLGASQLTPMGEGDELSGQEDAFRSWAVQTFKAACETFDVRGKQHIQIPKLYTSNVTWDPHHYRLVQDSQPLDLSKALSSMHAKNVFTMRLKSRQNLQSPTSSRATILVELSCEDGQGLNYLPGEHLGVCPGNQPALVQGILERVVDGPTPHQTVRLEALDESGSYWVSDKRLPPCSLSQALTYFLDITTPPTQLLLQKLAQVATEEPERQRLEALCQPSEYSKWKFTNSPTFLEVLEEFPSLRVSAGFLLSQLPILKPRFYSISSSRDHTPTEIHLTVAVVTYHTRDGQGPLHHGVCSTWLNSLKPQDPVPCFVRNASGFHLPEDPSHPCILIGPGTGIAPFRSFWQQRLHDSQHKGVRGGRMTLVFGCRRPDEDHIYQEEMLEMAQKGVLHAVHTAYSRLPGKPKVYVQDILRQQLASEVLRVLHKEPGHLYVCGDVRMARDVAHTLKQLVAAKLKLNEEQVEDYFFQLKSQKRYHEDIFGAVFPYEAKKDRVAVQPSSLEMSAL", "assay": "i-NOS inhibition, comparison with NIL amides", "format": "biochemical", "conditions": "compared with NIL amide or NIL dimethylamide"}, "[1]": {"conditions": "1800 ppm in diet, AOM-treated male F344 rats, Mean ± SEM"}}, "note": "Counter-ions that a name gives are not always drawn."}
{"smiles": "N=C(N)NN", "note": "[aminoguanidine]", "values": [{"measurement": "Foci containing 1 Crypt", "setting": "AOM-induced colonic ACF; [1]", "value": "28.0 ± 2.4"}, {"measurement": "Foci containing 2 Crypt", "setting": "AOM-induced colonic ACF; [1]", "value": "29.3 ± 1.3"}, {"measurement": "Foci containing 3 Crypt", "setting": "AOM-induced colonic ACF; [1]", "value": "17.8 ± 1.0"}, {"measurement": "Foci containing ≧4 Crypts", "setting": "AOM-induced colonic ACF; [1]", "value": "14.6 ± 1.8"}, {"measurement": "Total ACF incidence", "setting": "AOM-induced colonic ACF; [1]", "value": "89.8 ± 4.5"}, {"measurement": "effect on AOM-induced total colonic ACF and multicrypt clusters of 4 or more crypts", "setting": "AOM-induced colonic ACF; 1,800 ppm, compared to control diet", "value": "suppressed"}, {"measurement": "NOS Activity, NOS", "setting": "NOS", "value": "7.9 ± 1.7 pmoles [^3H]-citrulline/mg pro"}, {"measurement": "suppression of AOM-induced colonic mucosal iNOS activity", "setting": "iNOS; 1800 ppm", "value": 50, "unit": "%"}, {"measurement": "NOS Activity, iNOS", "setting": "iNOS; 1800 ppm in diet, AOM-treated rats, colonic mucosa, Mean ± SEM", "value": "1.1 ± 0.1 pmoles [^3H]-citrulline/mg pro"}, {"measurement": "COX-Activity, COX-1", "setting": "COX-1", "value": "10.8 ± 1.9 pmoles [^14C]-AA metabolized/m"}, {"measurement": "COX-Activity, COX-2", "setting": "COX-2", "value": "1.2 ± 0.2 pmoles [^14C]-AA metabolized/m"}]}
{"smiles": "CS(=O)(=O)c1ccc(C2=C(c3ccc(F)c(F)c3)C(=O)OC2)cc1", "note": "[MF-Tricyclic]", "values": [{"measurement": "intestinal tumorigenesis", "setting": "intestinal tumorigenesis", "value": "blocks"}]}
{"smiles": "CC(=N)NCCCC[C@H](N)C(=O)Nc1nnn[nH]1", "note": "[Example NN, 2S-amino-6-[(1-iminoethyl)amino]-N-(1H-tetrazol-5-yl)hexanamide, hydrate, dihydrochloride]", "values": [{"measurement": "i-NOS inhibitor potency", "setting": "i-NOS", "value": "more potent"}]}
{"smiles": "CC(=NO)NC/C(F)=C\\CC[C@H](N)C(=O)O", "note": "[Example G, (2S,5E)-2-amino-6-fluoro-7-[(1-hydroximinoethyl)amino]-5-heptenoic acid]", "values": [{"measurement": "melting point", "value": "198 to 200", "unit": "°C"}]}
